Experimental data published in ChEMBL document CHEMBL5335823, “Synthesis, biological evaluation, and stability studies of raloxifene mono- and bis-sulfamates as dual-targeting agents” (Bioorg Med Chem, 2024).

Assays:
[1] = target: T1, Steryl-sulfatase (Homo sapiens, UniProt P08842); assay: Inhibition of STS in human JEG-3 cell lysates assessed as inhibition of estrone E1 formation using [3H]estrone sulfate as substrate incubated for 1 hr in presence of E1S by scintillation spectrometry; type: subcellular
T1 sequence (P08842 whole entry): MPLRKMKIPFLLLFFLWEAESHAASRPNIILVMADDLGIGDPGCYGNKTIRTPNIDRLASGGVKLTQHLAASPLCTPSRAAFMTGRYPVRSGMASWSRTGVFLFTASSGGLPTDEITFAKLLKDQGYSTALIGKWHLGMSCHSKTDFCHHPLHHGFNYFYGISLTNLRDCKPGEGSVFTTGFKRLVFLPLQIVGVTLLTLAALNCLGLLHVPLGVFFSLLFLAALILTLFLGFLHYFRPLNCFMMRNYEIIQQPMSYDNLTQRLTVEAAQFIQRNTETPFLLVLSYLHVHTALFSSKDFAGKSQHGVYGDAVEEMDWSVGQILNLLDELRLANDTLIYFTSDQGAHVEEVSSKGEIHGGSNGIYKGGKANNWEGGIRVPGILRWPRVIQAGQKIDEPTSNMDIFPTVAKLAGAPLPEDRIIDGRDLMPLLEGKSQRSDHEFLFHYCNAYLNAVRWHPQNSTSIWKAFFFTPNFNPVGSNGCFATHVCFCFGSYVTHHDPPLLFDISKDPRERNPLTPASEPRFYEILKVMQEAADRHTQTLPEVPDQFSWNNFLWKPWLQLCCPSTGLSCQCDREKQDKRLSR

[2] = Stability of the compound in wet DMSO-d6 assessed as parent compound remaining at 7.9 umol measured at room temperature after 6 days by 1HNMR spectroscopy; type: physicochemical; settings: at 7.9 µmol, time 6 day, read-out: Stability
[3] = system: T47D; assay: Antiproliferative activity against human T47D cells assessed as inhibition of cell growth incubated for 5 days by crystal violet staining based analysis; type: functional; settings: 120 h, time 5 day
[4] = system: HOP-62; assay: Antiproliferative activity against human HOP-62 cells assessed as inhibition of cell growth measured after 72 hrs by CellTiter-Glo assay; type: functional
[5] = system: OVCAR-4; assay: Antiproliferative activity against human OVCAR-4 cells assessed as inhibition of cell growth measured after 72 hrs by CellTiter-Glo assay; type: functional
[6] = Stability of the compound in wet DMSO-d6 assessed as parent compound remaining at 7.9 umol measured at room temperature after 30 days by 1HNMR spectroscopy; type: physicochemical; settings: at 7.9 µmol, time 30 day, read-out: Stability
[7] = system: CCRF-CEM; assay: Antiproliferative activity against human CCRF-CEM cells assessed as inhibition of cell growth measured after 72 hrs by CellTiter-Glo assay; type: functional
[8] = target: T1, Steryl-sulfatase; assay: Inhibition of STS in human JEG-3 cells assessed as inhibition of estrone E1 formation using [3H]estrone sulfate as substrate incubated for 20 hrs in presence of E1S by scintillation spectrometry; type: cell-based
[9] = system: MDA-MB-231; assay: Antiproliferative activity against human MDA-MB-231 cells assessed as inhibition of cell growth measured after 72 hrs by CellTiter-Glo assay; type: functional
[10] = system: SF-539; assay: Antiproliferative activity against human SF-539 cells assessed as inhibition of cell growth measured after 72 hrs by CellTiter-Glo assay; type: functional
[11] = system: UACC-62; assay: Antiproliferative activity against human UACC-62 cells assessed as inhibition of cell growth measured after 72 hrs by CellTiter-Glo assay; type: functional
[12] = system: DU-145; assay: Antiproliferative activity against human DU-145 cells assessed as inhibition of cell growth measured after 72 hrs by CellTiter-Glo assay; type: functional
[13] = system: SN12C; assay: Antiproliferative activity against human SN12C cells assessed as inhibition of cell growth measured after 72 hrs by CellTiter-Glo assay; type: functional
[14] = system: HCT-116; assay: Antiproliferative activity against human HCT-116 cells assessed as inhibition of cell growth measured after 72 hrs by CellTiter-Glo assay; type: functional
[15] = system: T47D; assay: Antiproliferative activity against human T47D cells assessed as inhibition of cell growth at 10 uM incubated for 5 days by crystal violet staining based analysis; type: functional; settings: 120 h, time 5 day
[16] = Stability of the compound in wet DMSO-d6 assessed as parent compound remaining at 6.2 umol measured at room temperature after 6 days by 1HNMR spectroscopy; type: physicochemical; settings: at 6.2 µmol, time 6 day, read-out: Stability
[17] = Stability of the compound in wet DMSO-d6 assessed as parent compound remaining at 6.2 umol measured at room temperature after 45 days by 1HNMR spectroscopy; type: physicochemical; settings: at 6.2 µmol, time 45 day, read-out: Stability
[18] = target: T2, Estrogen receptor (Homo sapiens) (UniProt P03372); assay: Antagonist activity at ER-alpha (unknown origin) at 10 microM by ER-alpha coactivator assay
T2 sequence (whole entry): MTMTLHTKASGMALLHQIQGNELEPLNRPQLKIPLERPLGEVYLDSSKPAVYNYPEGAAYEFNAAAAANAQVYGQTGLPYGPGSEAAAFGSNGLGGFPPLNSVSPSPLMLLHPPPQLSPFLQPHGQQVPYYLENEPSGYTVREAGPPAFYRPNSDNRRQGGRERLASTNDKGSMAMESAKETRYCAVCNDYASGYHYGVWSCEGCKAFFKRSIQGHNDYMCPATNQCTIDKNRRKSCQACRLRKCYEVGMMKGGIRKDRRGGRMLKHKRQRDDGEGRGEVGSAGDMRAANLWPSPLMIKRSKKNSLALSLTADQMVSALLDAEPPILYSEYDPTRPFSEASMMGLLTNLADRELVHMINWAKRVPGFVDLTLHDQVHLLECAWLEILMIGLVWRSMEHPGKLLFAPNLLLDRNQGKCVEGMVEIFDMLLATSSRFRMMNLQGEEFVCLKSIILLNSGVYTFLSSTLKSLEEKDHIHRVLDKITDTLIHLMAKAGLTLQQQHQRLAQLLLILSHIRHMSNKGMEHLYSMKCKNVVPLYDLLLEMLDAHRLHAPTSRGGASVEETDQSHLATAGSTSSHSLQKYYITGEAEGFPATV

[19] = Stability of the compound in wet DMSO-d6 assessed as parent compound remaining at 8 umol measured at room temperature after 45 days by 1HNMR spectroscopy; type: physicochemical; settings: at 8 µmol, time 45 day, read-out: Stability

Cl.O=C(c1ccc(OCCN2CCCCC2)cc1)c1c(-c2ccc(O)cc2)sc2cc(O)ccc12 [RALOXIFENE HYDROCHLORIDE]
IC50 ([1]; jeg-3): Not Active

NS(=O)(=O)Oc1ccc(-c2sc3cc(OS(N)(=O)=O)ccc3c2C(=O)c2ccc(OCCN3CCCCC3)cc2)cc1
remaining at 144 h, 7.9 umol [2]: 27%
GI50 [3]: 7.12 µM
GI50 [4]: 14.8 µM
GI50 [5]: 10.6 µM
remaining at 720 h, 7.9 umol [6]: 0%
IC50 ([1]; read-out: IC50): 0.0966 µM
GI50 [7]: 9.02 µM
IC50 ([8]; read-out: IC50): 0.0122 µM
GI50 [9]: 1.34 µM
GI50 [10]: 13.1 µM
GI50 [11]: 1.47 µM
GI50 [12]: 16 µM
GI50 [13]: 1.61 µM
GI50 [14]: 14.6 µM

O=C(c1ccc(OCCN2CCCCC2)cc1)c1c(-c2ccc(O)cc2)sc2cc(O)ccc12 [RALOXIFENE]
GI50 [3]: 6.89 µM
IC50 ([1]; jeg-3): Not Active
IC50 ([8]; jeg-3): Not Active
inhibition at 10 µM [15]: 78%

NS(=O)(=O)Oc1ccc2c(C(=O)c3ccc(OCCN4CCCCC4)cc3)c(-c3ccc(O)cc3)sc2c1
remaining at 144 h, 6.2 umol [16]: 70%
remaining at 1080 h, 6.2 umol [17]: 18%
IC50 ([1]; read-out: IC50): 2.08 µM
IC50 ([8]; read-out: IC50): 0.332 µM

NS(=O)(=O)Oc1ccc(-c2sc3cc(O)ccc3c2C(=O)c2ccc(OCCN3CCCCC3)cc2)cc1
inhibition [18]: 27%
remaining at 1080 h, 8 umol [19]: 12%
IC50 ([1]; read-out: IC50): 3.4 µM
IC50 ([8]; read-out: IC50): 0.607 µM
inhibition at 10 µM [15]: 12%
